From PubChem BioAssay (NCI)
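Compound exposure: 48 hours, 5 concentrations, 96-well plates. At the TGI there is no net growth.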

Key:
Test in all cases: NCI anticancer screen, dose series, 48 h
[1] = test system: MOLT-4 leukemia
[2] = test system: NCI-H460 lung
[3] = test system: HOP-62 NSCLC
[4] = test system: HCT-116 colon
[5] = test system: OVCAR-3 ovarian
[6] = test system: HT29 colon
[7] = test system: COLO 205 colon
[8] = test system: U251 CNS
[9] = test system: SF-295 CNS
[10] = test system: UACC-62 melanoma
[11] = test system: SF-268 CNS
[12] = test system: RPMI-8226 leukemia
[13] = test system: MDA-MB-231 breast
[14] = test system: MDA-MB-435
[15] = test system: PC-3 prostate
[16] = test system: A498 renal

## C/C=C1\CN2CCc3c([nH]c4ccccc34)C2C=C1CCO (stereo unspecified)
[1]
  TGI: > 340 µM
[2]
  TGI: > 340 µM
[3]
  TGI: > 340 µM
[4]
  TGI: > 340 µM
[5]
  TGI: > 340 µM
[6]
  TGI: > 340 µM
[7]
  TGI: > 340 µM
[8]
  TGI: > 340 µM
[9]
  TGI: > 340 µM
[10]
  TGI: > 340 µM
[11]
  TGI: > 340 µM
[12]
  TGI: > 340 µM

## C=C1C(=O)OC2C3C(=C)[C@@H](OC(C)=O)CC3C(C)=CC(OC(=O)C(C)(OC(C)=O)C(C)OC(C)=O)[C@@H]12 (stereo partly specified)
[1]
  TGI: 52.2 µM
[2]
  TGI: 60.4 µM
[3]
  TGI: > 100 µM
[4]
  TGI: 23.8 µM
[5]
  TGI: 26.7 µM
[6]
  TGI: 27.5 µM
[13]
  TGI: 32.7 µM
[7]
  TGI: 28.2 µM
[14]
  TGI: 31.2 µM
[8]
  TGI: 30.8 µM
[15]
  TGI: 32.4 µM
[9]
  TGI: > 100 µM
[10]
  TGI: 27.2 µM
[11]
  TGI: 51.1 µM
[12]
  TGI: 38.5 µM

## C=C(C(=C)N1N=NC2C3CCC(C3)C21)N1N=NC2C3CCC(C3)C21 (stereo unspecified)
[1]
  TGI: > 100 µM
[2]
  TGI: > 100 µM
[3]
  TGI: > 100 µM
[4]
  TGI: > 100 µM
[5]
  TGI: > 100 µM
[6]
  TGI: > 100 µM
[7]
  TGI: > 100 µM
[8]
  TGI: > 100 µM
[9]
  TGI: > 100 µM
[10]
  TGI: > 100 µM
[11]
  TGI: > 100 µM

## CC(C)C[C@H](NC(=O)[C@H](Cc1ccc(F)cc1)NC(=O)c1ccccn1)B(O)O
[1]
  TGI: > 100 µM
[2]
  TGI: 0.0504 µM
[3]
  TGI: < 0.01 µM
[4]
  TGI: < 0.01 µM
[5]
  TGI: < 0.01 µM
[6]
  TGI: < 0.01 µM
[13]
  TGI: < 0.01 µM
[7]
  TGI: 1.12 µM
[14]
  TGI: < 0.01 µM
[8]
  TGI: 0.106 µM
[15]
  TGI: < 0.01 µM
[9]
  TGI: < 0.01 µM
[10]
  TGI: < 0.01 µM
[11]
  TGI: < 0.01 µM
[12]
  TGI: > 100 µM

## CC(C)(C)OC(=O)NCCNCCNc1ccccc1
[1]
  TGI: > 100 µM
[2]
  TGI: > 100 µM
[3]
  TGI: > 100 µM
[4]
  TGI: > 100 µM
[5]
  TGI: > 100 µM
[6]
  TGI: > 100 µM
[13]
  TGI: > 100 µM
[7]
  TGI: > 100 µM
[14]
  TGI: > 100 µM
[8]
  TGI: > 100 µM
[15]
  TGI: > 100 µM
[9]
  TGI: > 100 µM
[10]
  TGI: > 100 µM
[12]
  TGI: > 100 µM

## CCOC(=O)c1cnc2sc3ccc4ccccc4c3n2c1=O
[1]
  TGI: > 100 µM
[2]
  TGI: > 100 µM
[3]
  TGI: > 100 µM
[4]
  TGI: > 100 µM
[5]
  TGI: > 100 µM
[6]
  TGI: > 100 µM
[7]
  TGI: > 100 µM
[8]
  TGI: > 100 µM
[9]
  TGI: > 100 µM
[10]
  TGI: > 100 µM
[11]
  TGI: > 100 µM
[12]
  TGI: > 100 µM

## O=C1c2ccccc2C2C1C(c1ccccc1)C1(Cc3ccccc3C1=O)C2c1ccccc1 (stereo unspecified)
[1]
  TGI: > 100 µM
[2]
  TGI: > 100 µM
[3]
  TGI: > 100 µM
[4]
  TGI: > 100 µM
[5]
  TGI: > 100 µM
[6]
  TGI: > 100 µM
[13]
  TGI: > 100 µM
[7]
  TGI: > 100 µM
[14]
  TGI: > 100 µM
[8]
  TGI: > 100 µM
[15]
  TGI: > 100 µM
[9]
  TGI: > 100 µM
[10]
  TGI: > 100 µM
[11]
  TGI: > 100 µM

## CC(=O)O[C@@]12CO[C@@H]1C[C@@H](O)[C@@]1(C)C(=O)[C@H](O)C3=C(C)[C@@H](OC(=O)[C@H](O)[C@@H](NC(=O)c4ccccc4)c4ccccc4)C[C@@](O)([C@@H](OC(=O)c4ccccc4)C12)C3(C)C (stereo partly specified)
[1]
  TGI: > 42.5 µM
[2]
  TGI: 25.1 µM
[16]
  TGI: > 100 µM
[3]
  TGI: > 69.7 µM
[4]
  TGI: 0.152 µM
[6]
  TGI: 0.124 µM
[13]
  TGI: 43.8 µM
[7]
  TGI: 0.176 µM
[8]
  TGI: > 100 µM
[15]
  TGI: > 100 µM
[9]
  TGI: 8.52 µM
[11]
  TGI: > 100 µM
[12]
  TGI: > 100 µM

## C#CCN(N=O)C(=O)NCCCCC(NC(C)=O)C(=O)NCc1ccccc1 (stereo unspecified)
[1]
  TGI: > 100 µM
[2]
  TGI: > 100 µM
[16]
  TGI: > 100 µM
[3]
  TGI: > 100 µM
[4]
  TGI: > 100 µM
[5]
  TGI: > 100 µM
[6]
  TGI: > 100 µM
[7]
  TGI: > 100 µM
[8]
  TGI: > 100 µM
[9]
  TGI: > 100 µM
[10]
  TGI: > 100 µM
[11]
  TGI: > 100 µM
[12]
  TGI: > 100 µM

## O=C1NC(N2CCCCC2)=N/C1=C\c1ccc(Cl)cc1
[1]
  TGI: > 100 µM
[3]
  TGI: > 100 µM
[4]
  TGI: 92.7 µM
[5]
  TGI: > 100 µM
[6]
  TGI: 35.7 µM
[13]
  TGI: > 100 µM
[7]
  TGI: > 100 µM
[14]
  TGI: > 100 µM
[8]
  TGI: > 100 µM
[15]
  TGI: > 100 µM
[9]
  TGI: > 100 µM
[10]
  TGI: > 100 µM
[11]
  TGI: > 100 µM
[12]
  TGI: > 100 µM

## COC(=O)[C@H]1COC(=O)N1
[1]
  TGI: > 100 µM
[2]
  TGI: > 100 µM
[16]
  TGI: > 100 µM
[3]
  TGI: > 100 µM
[4]
  TGI: > 100 µM
[5]
  TGI: > 100 µM
[6]
  TGI: > 100 µM
[13]
  TGI: > 100 µM
[7]
  TGI: > 100 µM
[14]
  TGI: > 100 µM
[8]
  TGI: > 100 µM
[9]
  TGI: > 100 µM
[10]
  TGI: > 100 µM
[11]
  TGI: > 100 µM

## COC(=O)C(Br)C1CCc2ccccc21 (stereo unspecified)
[1]
  TGI: > 100 µM
[2]
  TGI: > 100 µM
[16]
  TGI: > 100 µM
[3]
  TGI: > 100 µM
[4]
  TGI: > 100 µM
[5]
  TGI: > 100 µM
[6]
  TGI: > 100 µM
[7]
  TGI: > 100 µM
[8]
  TGI: > 100 µM
[9]
  TGI: > 100 µM
[10]
  TGI: > 100 µM
[11]
  TGI: > 100 µM
[12]
  TGI: > 100 µM

## O=C1c2ccccc2C(=O)C1C(c1ccc(F)cc1)C1C(=O)c2ccccc2C1=O
[1]
  TGI: > 100 µM
[2]
  TGI: > 100 µM
[3]
  TGI: > 100 µM
[4]
  TGI: > 100 µM
[5]
  TGI: > 100 µM
[6]
  TGI: > 100 µM
[7]
  TGI: > 100 µM
[8]
  TGI: > 100 µM
[9]
  TGI: > 100 µM
[10]
  TGI: > 100 µM
[11]
  TGI: > 100 µM
[12]
  TGI: > 100 µM

## CN(C)CCNC(=O)Cn1cnc2cccc([N+](=O)[O-])c2c1=O
[1]
  TGI: > 100 µM
[2]
  TGI: > 100 µM
[16]
  TGI: > 100 µM
[3]
  TGI: > 100 µM
[4]
  TGI: > 100 µM
[5]
  TGI: > 100 µM
[6]
  TGI: > 100 µM
[7]
  TGI: > 100 µM
[14]
  TGI: > 100 µM
[8]
  TGI: > 100 µM
[15]
  TGI: > 100 µM
[9]
  TGI: > 100 µM
[10]
  TGI: > 100 µM
[11]
  TGI: > 100 µM
[12]
  TGI: > 100 µM

## Nc1ccc(C23CC4CC(C2)CC(c2ccc(N)cc2)(C4)C3)cc1
[1]
  TGI: 28.4 µM
[2]
  TGI: > 100 µM
[16]
  TGI: 47.4 µM
[3]
  TGI: > 100 µM
[4]
  TGI: > 100 µM
[5]
  TGI: > 100 µM
[7]
  TGI: 52.5 µM
[14]
  TGI: > 100 µM
[8]
  TGI: 35.6 µM
[10]
  TGI: > 100 µM
[11]
  TGI: > 100 µM
[12]
  TGI: 27.4 µM

## COC(=O)C(C(=O)C(=O)Nc1cccc([N+](=O)[O-])c1)c1nc2ccc([N+](=O)[O-])cc2[nH]c1=O (stereo unspecified)
[1]
  TGI: > 100 µM
[2]
  TGI: > 100 µM
[16]
  TGI: > 100 µM
[3]
  TGI: > 100 µM
[4]
  TGI: > 100 µM
[5]
  TGI: > 100 µM
[6]
  TGI: > 100 µM
[7]
  TGI: > 100 µM
[8]
  TGI: > 100 µM
[9]
  TGI: > 100 µM
[10]
  TGI: > 100 µM
[11]
  TGI: > 100 µM
